These results are taken from US5128338A, “Imidazo [1,2-c] quinazoline compounds” (priority 1990, dated 1992).

Where two headings read alike, the source gives them in different places.

Test [1] has as its target T1, peripheral receptors for benzodiazepines ([^3 H]-PK 11195) (Rattus norvegicus, UniProt P16257).
T1 construct: on microsomal fractions from rat heart; from tissue; host or cells: rat heart, microsomal fractions
As to the kind of experiment: Displacement of [3H]-PK 11195, rat heart microsomal fractions.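 Also: radioligand binding with bound label split from free by vacuum filtration, then quantified through liquid scintillation counting.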 The test is classed as binding. To be noted: corrected for DMSO, read-out: K0.5, peripheral receptors, [^3 H]--PK 11195. A general note: In a radioligand displacement assay an active substance lowers the binding of a labelled ligand.

The target in test [2] is T2, peripheral receptors for benzodiazepines ([^3 H]-R05-4864) (Rattus norvegicus, UniProt P16257).
T2 construct: on microsomal fractions from rat heart; from tissue; host or cells: rat heart, microsomal fractions
Kind of test: Displacement of [3H]-R05-4864, rat heart microsomal fractions.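 Also: Read-out is filter-retained bound radioligand, separated from free ligand by vacuum filtration over GF/C and counted by liquid scintillation, with compounds first dissolved in DMSO.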 The test is classed as binding. To be noted: corrected for DMSO, read-out: K0.5, peripheral receptors, [^3 H]--RO 54864.

For test [3], the target named is central receptors for benzodiazepines. Kind of test: Displacement of [3H]-RO 151788, rat central nervous system microsomal fractions. The format is binding. The conditions noted are these: corrected for DMSO, read-out: K0.5, central receptors, [^3 H]--RO 151788.
For the next test, the system named is porcine coronary. As to the kind of experiment: Porcine coronary relaxation (PGF2α-precontracted coronary segments). Also on record: species or system pig (Yucatan mini pig). The conditions noted are these: for EC20 / EC50: Sus scrofa; for EC20: read-out: DE20, effect on coronary tension induced by PGF2α; for EC50: read-out: DE50, effect on coronary tension induced by PGF2α; for level of relaxation obtained as well as the 50% effect value (K0.5) obtained by displacement: overall judgement of relaxation and K0.5. The procedure: All the products studied were dissolved in DMSO at a concentration of 10^-2 M, then diluted to the desired concentrations in the experimental media. All of the ED20, ED50 and K0.5 values were corrected for the values obtained with DMSO under the same conditions of dilution.
Coronaries were taken on the heart of pigs (Yucatan mini pig), anesthetized under stresnil and pentobarbital. Proximal segments of the coronary were placed in an organ tank filled with Ringer solution at 37° C. The segments were tightened progressively to a base tension of around 6 g and contracted by the addition of PGF2α at a concentration of 4.10^-6 M. The potential of the products of the present invention to relax the coronary artery were then tested.
All of the compounds were tested for their capacity to relax the porcine coronary precontracted by PGF2α.

[4] abbreviates: porcine coronary segments, 37° C., PGF2α 4.10^-6 M, corrected for DMSO.
Where [5] appears, read: porcine coronary segments, PGF2α 4.10^-6 M.

Consider `CCN(CC)C(=O)Cn1c(=O)n2cc(C(N)=O)nc2c2ccccc21` [Example 4, 2-Aminocarbonyl-6-N,N-diethylaminocarbonylmethyl-5-oxo-5,6-dihydroimidazo[1,2-c]quinazoline], for which the IC50 in test [1] is 8 µM; in test [2] it was 6 µM; in test [3] it was greater than 100 µM. Further, the EC20 in the test with porcine coronary (setting [4]) is 57.4 µM. Moreover, the EC50 in the test on porcine coronary (setting [4]) stood at 9.66 µM.
Take `CCN(CC)C(=O)Cn1c(=O)n2c(C)c(-c3ccccc3)nc2c2ccccc21` [Example 20, 2-phenyl-3-methyl-6--N,N-diethylaminocarbonylmethyl-5-oxo-5,6-dihydroimidazo[1,2-c]quinazoline]: the IC50 in test [2] turned out to be 0.0086 µM. Moreover, in the test on porcine coronary (setting [4]), the EC20 amounted to 3.46 µM and the EC50 worked out at 0.87 µM.
`CCN(CC)C(=O)Cn1c(=O)n2cc(-c3ccco3)nc2c2ccccc21` [Example 21, 2-(2-furyl)-6-N,N-diethylaminocarbonylmethyl-5-oxo-5,6-dihydroimidazo[1,2-c]quinazoline]: the IC50 in test [1] was 0.26 µM; in test [2], 0.58 µM; in test [3], greater than 100 µM. Further, in the test on porcine coronary (setting [4]), the EC20 stood at 3.89 µM. Further, the EC50 in the test on porcine coronary (setting [4]) was determined as 1 µM.
On to `CCC(C)N(C)C(=O)c1cc2ccccc2c(-c2ccccc2Cl)n1` (centres unmarked) [PK 11195, reference compound], for which, in the test with porcine coronary, the EC20 is 9.13 µM and the EC50 came to 1.66 µM.
Regarding `CCOC(=O)c1cn2c(=O)[nH]c3ccccc3c2n1` [Example 1, 2-Ethoxycarbonyl-5-oxo-5,6-dihydroimidazo[1,2-c]quinazoline], the IC50 was greater than 100 µM in test [1], 61 µM in test [2] and 1 µM in test [3]. Moreover, in the test on porcine coronary (setting [5]), the “Effect on coronary tension induced by PGF2α (in words)” value (shortened to “Effect on coronary tension induced”) is “No effect”.
In the case of `CCN(CC)C(=O)Cn1c(=O)n2cc(-c3ccc(OC)c(OC)c3)nc2c2ccccc21` [Example 23, 2-(3,4-dimethoxyphenyl)-6-N,N-diethylaminocarbonylmethyl-5-oxo-5,6-dihydroimidazo[1,2-c]quinazoline], in test [3], the IC50 was greater than 100 µM. Further, in the test with porcine coronary (setting [4]), the EC20 was 0.74 µM and the EC50 was 0.18 µM.
With `CCN(CC)C(=O)Cn1c(=O)n2cc(-c3ccccc3)nc2c2ccccc21` [Example 11, 2-phenyl-6-N,N-diethylaminocarbonylmethyl-5-oxo-5,6-dihydroimidazo[1,2-c]quinazoline], the IC50 in test [3] is greater than 100 µM. In the test with porcine coronary (setting [4]), the EC20 worked out at 6.93 µM and the EC50 came to 1.13 µM. Moreover, the “level of relaxation obtained as well as the 50% effect value (K0.5) obtained by displacement” value in the test on porcine coronary is reported as “particularly favorable”.
With `O=C(Cn1c(=O)n2cc(-c3ccccc3)nc2c2ccccc21)N1CCOCC1` [Example 16, 2-phenyl-6-morpholinocarbonylmethyl-5-oxo-5,6-dihydroimidazo[1,2-c]quinazoline], the IC50 in test [1], in test [2] and in test [3] was greater than 100 µM throughout. In the test with porcine coronary (setting [4]), the EC20 turned out to be 12.3 µM. In addition, the EC50 with porcine coronary (setting [4]) turned out to be 3.49 µM.
On to `CCN(CC)C(=O)Cn1c(=O)n2cc(-c3cccc(Cl)c3)nc2c2ccccc21` [Example 19, 2-(m-chlorophenyl)-6-N,N-diethylaminocarbonylmethyl-5-oxo-5,6-dihydroimidazo[1,2-c]quinazoline], for which the IC50 in test [1] is 0.058 µM; in test [2], 0.05 µM; in test [3], greater than 100 µM. Further, the EC20 in the test with porcine coronary (setting [4]) turned out to be 23.6 µM. Besides, the EC50 with porcine coronary (setting [4]) was found to be 2.36 µM.
Take `CCN(CC)C(=O)Cn1c(=O)n2cc(-c3ccccc3Cl)nc2c2ccccc21` [Example 30, 2-(o-chlorophenyl)-6-N,N-diethylaminocarbonylmethyl-5-oxo-5,6-dihydroimidazo[1,2-c]quinazoline]: the IC50 was found to be 0.28 µM in test [1] and 0.034 µM in test [2]. In the test with porcine coronary (setting [4]), the EC20 was 73.9 µM. Further, the EC50 with porcine coronary (setting [4]) amounted to 10.4 µM.
`OCCN(CCO)c1nc(N2CCCCC2)c2nc(N(CCO)CCO)nc(N3CCCCC3)c2n1` [Dipyridamole, dipyridamole, reference compound]: the IC50 in test [1] is 0.3 µM. Moreover, in test [2], the IC50 was 0.2 µM. In the test with porcine coronary (setting [4]), the EC20 came to 1.61 µM and the EC50 turned out to be 0.446 µM.
On to `CCCN(CCC)C(=O)Cn1c(=O)n2cc(-c3ccccc3)nc2c2ccccc21` [Example 28, 2-phenyl-6-N,N-dipropylaminocarbonylmethyl-5-oxo-5,6-dihydroimidazo[1,2-c]quinazoline], for which the IC50 in test [3] came to 100 µM. In addition, in the test with porcine coronary (setting [4]), the EC20 was greater than 100 µM and the EC50 was 196 µM. In addition, the “level of relaxation obtained as well as the 50% effect value (K0.5) obtained by displacement” value in the test with porcine coronary is recorded as “particularly favorable”.
Turning to `CN1C(=O)CN=C(c2ccccc2)c2cc(Cl)ccc21` [Diazepam, diazepam, reference compound], the EC20 in the test with porcine coronary is 16.4 µM.
Consider `CCN(CC)C(=O)Cn1c(=O)n2c(CN(C)C)c(-c3ccccc3)nc2c2ccccc21` [Example 5, 2-Phenyl-3-dimethylaminomethyl-6-N,N-diethylaminocarbonylmethyl-5-oxo-5,6-dihydroimidazo[1,2-c]quinazoline], for which the IC50 was 2.2 µM in test [1] and 4.5 µM in test [2]. Moreover, the EC20 in the test with porcine coronary (setting [4]) came out at 144 µM. Moreover, in the test on porcine coronary (setting [4]), the EC50 worked out at 18.9 µM.
The matching figures for `CCc1c(-c2ccccc2)nc2c3ccccc3n(CC(=O)N(CC)CC)c(=O)n12` [Example 25, 2-phenyl-3-ethyl-6-N,N-diethylaminocarbonylmethyl-5-oxo-5,6-dihydroimidazo[1,2-c]quinazoline]: 0.032 µM, 0.05 µM, greater than 100 µM and 370 µM.
The corresponding values for `Cn1c(=O)n2cc(-c3ccccc3)nc2c2ccccc21` [Example 29, 2-phenyl-6-methyl--5-oxo-5,6-dihydroimidazo[1,2-c]quinazoline] are greater than 100 µM, greater than 100 µM, greater than 100 µM and greater than 100 µM.
As for `CCOC(=O)COc1ccc2c(=O)cc(-c3ccccc3)oc2c1` [Efloxate, efloxate, reference compound], the IC50 in test [1] was 20 µM. In addition, in test [2], the IC50 came out at 200 µM. Also, in the test with porcine coronary (setting [4]), the EC20 worked out at 35.8 µM and the EC50 worked out at 3.94 µM.
Regarding `CCOC(=O)c1cn2c(=O)n(C)c3ccccc3c2n1` [Example 8, 2-ethoxycarbonyl-6-methyl-5-oxo-5,6-dihydroimidazo[1,2-c]quinazoline], the values for the IC50 in test [1] and in test [2] were greater than 100 µM and 30 µM, respectively. Moreover, the “Effect on coronary tension induced” value in the test on porcine coronary (setting [5]) is given as “No effect”.
Take `CN1CCN(C(=O)Cn2c(=O)n3cc(-c4ccccc4)nc3c3ccccc32)CC1` [Example 12, 2-phenyl-6-N-methylpiperazinocarbonylmethyl-5-oxo-5,6-dihydroimidazo[1,2-c]quinazoline]: the IC50 in test [1] came to 80 µM. Further, the IC50 in test [2] came to 40 µM. Further, in the test on porcine coronary (setting [4]), the EC20 amounted to 587 µM and the EC50 was 31.9 µM.
For `CCN(CC)C(=O)Cn1c(=O)n2cc(-c3ccccc3)nc2c2c(Cl)cccc21` [Example 31, 2-phenyl-6-N,N-diethylaminocarbonylmethyl-10-chloro-5-oxo-5,6-dihydroimidazo[1,2-c]quinazoline], the results for the IC50 in test [1], in test [2] and in test [3] were 1.4 µM, 2.8 µM and 100 µM, respectively.
As to `CCOC(=O)c1cn2c(=O)n(Cc3ccccc3)c3ccccc3c2n1` [Example 10, 2-ethoxycarbonyl-6-benzyl-5-oxo-5,6-dihydroimidazo[1,2-c]quinazoline], in test [1], the IC50 was roughly 100 µM. The IC50 in test [2] stood at 8.8 µM. Moreover, in the test on porcine coronary (setting [4]), the EC20 was 3.33 µM and the EC50 is 1.04 µM. The “level of relaxation obtained as well as the 50% effect value (K0.5) obtained by displacement” value in the test on porcine coronary is listed as “particularly favorable”.
Turning to `O=C(c1ccccc1)c1cn2c(=O)[nH]c3ccccc3c2n1` [Example 9, 2-benzoyl-5-oxo-5,6-dihydroimidazo[1,2-c]quinazoline], the IC50 in test [1] stood at 28 µM; in test [2] it was 13 µM. Besides, the “Effect on coronary tension induced” value in the test with porcine coronary (setting [5]) is “No effect”.
Take `CCOC(=O)c1cn2c(=O)n(CC(=O)N(CC)CC)c3ccccc3c2n1` [Example 2, 2-Ethoxycarbonyl-6-N,N-diethylaminocarbonylmethyl-5-oxo-5,6-dihydroimidazo[1,2-c]quinazoline]: in test [1], the IC50 amounted to 0.55 µM.
In the case of `O=c1[nH]c2ccccc2c2nc(-c3ccccc3)cn12` [Example 3, 2-Phenyl-5-oxo-5,6-dihydroimidazo[1,2-c]quinazoline], the IC50 in test [1] is 4.5 µM; in test [2], greater than 100 µM. For the same compound, the EC20 in the test on porcine coronary (setting [4]) was 35.4 µM. The EC50 in the test with porcine coronary (setting [4]) is 7.48 µM.
With `CCN(CC)C(=O)Cn1c(=O)n2cc(C(=O)c3ccccc3)nc2c2ccccc21` [Example 6, 2-Benzoyl-6-N,N-diethylaminocarbonylmethyl-5-oxo-5,6-dihydroimidazo[1,2-c]quinazoline], the IC50 came out at 0.22 µM in test [1] and 0.2 µM in test [2].
With `CN1C(=O)CN=C(c2ccc(Cl)cc2)c2cc(Cl)ccc21` [Example R05-4864, reference compound], in the test with porcine coronary, the EC20 amounted to 9.38 µM and the EC50 is 1.48 µM.
